Test system: CD8^+ T-cells in MMTV-PyMT tumors
Experiment: Flow cytometry of the TME of MMTV-PyMT tumors after 36 h treatment
Format: in vivo, mouse
Conditions: single-agent therapy
Protocol: At 36 h post treatment initiation of treatment mice were sacrificed and tumors were harvested and analyzed. (A) Schematic representing the dosing strategy. (B) The fold change of tumor growth over 36 h post initiation of treatment. (C-G) Tumors were enzyme-digested to release single cells which were analyzed for their live (7AAD^-) stromal cell composition using flow cytometry (n=5 tumors per group) (C) and CD8^+ T-cells (D). Gating strategy (left panel) and quantitation of CD8^+ T-cell subsets based on CD62L and CD44 expressions (right panel; TCM; T central memory cells, TEM; T effector memory cells, Teff; T effectors cells) (E), and the ability of the tumoral CD8^+ T-cells to secrete IFNγ post ex vivo exposure to PMA/ionomycin treatment (F). […] Scale bar is 100 µm and white arrows indicate infiltrating CD8^+ T-cells. […] Image in panel (A) was created using BioRender. Bar charts show the mean, error bars SD, and the dots show individual data points from individual tumors and mice. Gemc.; gemcitabine. * P<0.05, ** P<0.01, *** P<0.001.
MN-MCA1 sarcoma cells were orthotopically implanted into syngeneic C57Bl/6 mice for tumors. A total of 2.5 x 10^5 cells in 100 μL RPMI were injected subcutaneously into female mice. […] When tumors became palpable, volumes were measured every 2-4 days using digital caliper measurements of the long (L) and short (S) dimensions of the tumor. […]

Compound: O=c1[nH]cc(F)c(=O)[nH]1 [5-FU, 5-fluorouracil]
- abundance of CD8^+ T-cells in the TME: increase in the abundance of CD8^+ T-cells
